Measurements taken from patent US4465851A, “Guanidinocyclohexanecarboxylic acid derivatives” (Nippon Chemiphar Co., Ltd., priority 1981, dated 1984).
Several values for one entry are separate records, joined by “and”; a condition that tells them apart may be missing. Identical values can stand only once. Counter-ions that a name gives are not always drawn.

Key:
Plasmin [1] = settings: J. Med. Chem., Vol. 15, No. 3, 247 (1972); cited from earlier work
Urokinase = Urokinase (Homo sapiens, UniProt P00749); test: Inhibition of urokinase (AGLMe, chromotropic acid method); format: biochemical; settings: 60 iu urokinase, 10 mM AGLMe, 37° C., 30 minutes, pH 7.5; read-out: Concentration for 50% inhibition (IC50), urokinase
Experimental: (§1) Inhibitory effects on the TAMe(N^α -tosyl-L-arginine methyl ester) hydrolytic activity of trypsin, plasmin, plasma kallikrein and thrombin were estimated by Hesterin's method modified by Roberts. Inhibition of the BAEe(N^α -benzoyl-L-arginine ethyl ester) hydrolytic activity of pancreas kallikrein was determined by Hesterin's method after incubation at 37° C. for 30 minutes in a 0.1M borate buffer, pH 8.0. Inhibitory effects on urokinase were determined by the chromotropic acid method after incubation of 60 iu of urokinase with 10 mM AGLMe(acetylglycyl-L-lysine methyl ester) at 37° C. for 30 minutes in a 0.06M phosphate buffer, pH 7.5, containing 0.09M NaCl. Inhibition of chymotrypsin was determined by Hesterin's method after incubation with 15 mM ATE (N^α -acetyl-L-tyrosine ethyl ester) for 30 minutes at 37° C. in a 0.1M borate buffer, pH 8.0.

guinea pigs ilea [2] = test: Anti-acetylcholine action; set-up: species or system guinea pig; settings: Cavia porcellus, read-out: Anti-acetylcholine effect inhibition of contraction
From the text: (§2) Anti-acetylcholine and anti-histamine effects of the present compounds were examined using guinea pigs ilea by the usual method.

guinea pigs ilea [3] = test: Anti-histamine action; set-up: species or system guinea pig; settings: Cavia porcellus, read-out: Anti-histamine effect inhibition of contraction
From the text: as §2

Thrombin = Thrombin (Homo sapiens, UniProt P00734); test: Inhibition of thrombin (TAMe hydrolysis); format: biochemical; settings: TAMe substrate; read-out: Concentration for 50% inhibition (IC50), thrombin
Chymotrypsin = Chymotrypsin (Bos taurus, UniProt P00766); test: Inhibition of chymotrypsin (ATE hydrolysis); format: biochemical; settings: 15 mM ATE, 30 minutes, 37° C., pH 8.0; read-out: Concentration for 50% inhibition (IC50), chymotrypsin
Experimental: as §1

Acute toxicity in rats = settings: rat, in vivo, po
Experimental: (§3) Normal ICR strain mice (female: 22 g, male: 24 g) or Wister strain rats (female: 90 g, male: 95 g) were used. A test compound was orally given using a gastric sonde. […] The LD50 values were calculated by the Litchfield-Wilcoxon method.

[4] = Experimental asthma with actively sensitized guinea pigs; format: in vivo, Hartley male guinea pigs; settings: individual animals, hydrochloride
Experimental: The evaluation was also performed in the experimental asthma with actively sensitized guinea pigs as follows: Hartley male guinea pigs each weighing 300 to 350 g were sensitized (by subcutaneous injection into the inguinal region) with an egg albumin solution (1 mg/ml) emulsified with an equal volume of Freund's complete adjuvant (5 mg/kg of body weight). Ten days later, the emulsion was injected subcutaneously into the axilla. On the 26th day after the first sensitization, the animals were subjected to the experiments which were conducted in the same manner as in the passively sensitized animals.

Plasmin [5] = target: Plasmin (Homo sapiens, UniProt P00747); test: Inhibition of plasmin (TAMe hydrolysis); format: biochemical; settings: TAMe substrate; read-out: Concentration for 50% inhibition (IC50), plasmin
Experimental: as §1

Acute toxicity in mice = settings: mouse, in vivo, po
Experimental: as §3

[6] = test system: ileum of each sensitized guinea pig; test: Schultz-Dale reaction; settings: Cavia porcellus, read-out: Inhibition of contraction (Schultz-Dale reaction)
Experimental: Male guinea pigs were sensitized with bovine serum albumin by Freund's complete adjuvant method. After a lapse of 10 days, the animals were sensitized once more as described above. After two more weeks, an ileum of each sensitized guinea pig was removed and used for experiment. The ileum was equipped in a magnus tube containing each test sample, and 500 μg of bovine serum albumin was added. The contraction of the ileum was determined.

Trypsin = target: T1, Trypsin (Bos taurus, UniProt P00760); test: Inhibition of trypsin (TAMe hydrolysis); format: biochemical; settings: TAMe substrate; read-out: Concentration for 50% inhibition (IC50), trypsin
T1 sequence (P00760 24-246): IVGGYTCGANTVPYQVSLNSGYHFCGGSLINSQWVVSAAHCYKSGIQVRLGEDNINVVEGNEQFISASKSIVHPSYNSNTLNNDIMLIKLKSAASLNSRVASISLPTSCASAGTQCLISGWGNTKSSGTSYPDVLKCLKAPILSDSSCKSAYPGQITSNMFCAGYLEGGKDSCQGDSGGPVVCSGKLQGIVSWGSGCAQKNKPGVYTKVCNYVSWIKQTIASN
Experimental: as §1

Plasma kallikrein = Plasma kallikrein (Homo sapiens, UniProt P03952); test: Inhibition of plasma kallikrein (TAMe hydrolysis); format: biochemical; settings: TAMe substrate; read-out: Concentration for 50% inhibition (IC50), plasma kallikrein
Experimental: as §1

Mast cells = test: Effects on histamine release from mast cells induced by compound 48/80; format: cell-based; settings: Mast cell, read-out: Inhibition of histamine release
Experimental: After incubation for 20 minutes at 37° C., the suspension was cooled to 4° C., and released histamine was determined as described by Shore et al. All samples examined were recognized to cause no disturbance in the fluorometric assay.

[7] = Active systemic anaphylaxis in mice; format: in vivo; settings: oral, survivors of 5 mice
Experimental: Egg albumin (10 mg) was mixed with 10 ml Bordetella pertusis vaccine (Takeda Chemical Industries, Ltd.), and the mixture was intraperitoneally injected into mice in an amount of 10 ml/kg. 22 days later, active systemic anaphylaxis was induced by intravenous injection of egg albumin dissolved in saline in an amount of 3 mg/10 ml/kg. A test sample suspended in 5% gum arabic was administered orally to the sensitized mice 1 hour prior to the antigen challenge. 24 hours after the antigen challenge, the number of survived mice was counted.

[8] = Experimental asthma with passively sensitized guinea pigs; format: in vivo, Hartley male guinea pigs; settings: 500 mg/kg oral, individual animals (10 animals)
Experimental: Hartley male guinea pigs each weighing 300 to 350 g were passively sensitized by intravenous injection with rabbit anti-egg albumin serum (0.5 ml/kg). 24 hours after passive sensitization, the guinea pigs were placed in a chamber for an inhalation test and then subjected to continuous spraying for 900 seconds with a mist of a 2% egg albumin solution. A test sample suspended in 5% gum arabic was orally administered 1 hour prior to the antigen challenge. The preconvulsion time was measured.

Pancreas kallikrein = Pancreas kallikrein (Sus scrofa, UniProt P00752); test: Inhibition of pancreas kallikrein (BAEe hydrolysis); format: biochemical; settings: BAEe substrate, 37° C., 30 minutes, pH 8.0; read-out: Concentration for 50% inhibition (IC50), pancreas kallikrein
Experimental: as §1

[9] = Passive cutaneous anaphylaxis; format: in vivo; settings: rat, 125 mg/kg, p.o., 1 hour prior to antigen; dilution ratio of antigen × 32
Experimental: Diluted anti-egg albumin (rat anti-egg albumin serum) with saline (0.05 ml) was subcutaneously injected into the back of a rat. 48 hours later, egg albumin and Evans' blue dissolved in saline (egg albumin 10 mg and Evans' blue 5 mg/ml) were intravenously injected into the rat in an amount of 2.5 ml/kg. 45 minutes later, the rat was killed, bled and skined, and the permeated area (mm^2) of the dye was measured. Test samples were administered per os 1 hour prior to antigen injection.

Sequence of Plasmin (Homo sapiens, UniProt P00747) (P00747 97-580 limits assumed, species assumed): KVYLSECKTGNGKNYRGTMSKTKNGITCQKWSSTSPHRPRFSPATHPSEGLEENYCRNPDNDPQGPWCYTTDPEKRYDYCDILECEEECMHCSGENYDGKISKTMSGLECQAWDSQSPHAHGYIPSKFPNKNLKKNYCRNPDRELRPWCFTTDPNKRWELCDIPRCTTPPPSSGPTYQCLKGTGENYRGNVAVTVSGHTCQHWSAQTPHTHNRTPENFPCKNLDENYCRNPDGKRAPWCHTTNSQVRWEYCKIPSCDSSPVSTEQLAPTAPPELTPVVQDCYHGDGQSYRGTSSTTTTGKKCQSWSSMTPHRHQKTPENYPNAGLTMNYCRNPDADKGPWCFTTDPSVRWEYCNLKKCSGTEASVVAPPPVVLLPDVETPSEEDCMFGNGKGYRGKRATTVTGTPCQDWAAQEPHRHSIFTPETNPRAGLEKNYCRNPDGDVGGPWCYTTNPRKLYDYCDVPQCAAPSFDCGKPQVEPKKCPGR
Sequence of Plasma kallikrein (P03952 20-390 limits assumed, species assumed): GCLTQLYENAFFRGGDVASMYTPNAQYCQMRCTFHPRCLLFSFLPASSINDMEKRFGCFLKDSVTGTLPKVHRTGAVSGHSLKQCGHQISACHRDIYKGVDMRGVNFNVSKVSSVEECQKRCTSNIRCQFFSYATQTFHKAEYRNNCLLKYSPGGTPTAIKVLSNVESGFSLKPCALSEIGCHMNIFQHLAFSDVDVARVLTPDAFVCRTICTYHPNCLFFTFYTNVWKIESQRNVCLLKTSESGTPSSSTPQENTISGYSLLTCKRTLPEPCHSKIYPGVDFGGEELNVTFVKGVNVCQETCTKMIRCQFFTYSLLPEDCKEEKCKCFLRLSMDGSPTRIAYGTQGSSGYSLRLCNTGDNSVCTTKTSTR
Sequence of Pancreas kallikrein (P00752 15-246 limits assumed): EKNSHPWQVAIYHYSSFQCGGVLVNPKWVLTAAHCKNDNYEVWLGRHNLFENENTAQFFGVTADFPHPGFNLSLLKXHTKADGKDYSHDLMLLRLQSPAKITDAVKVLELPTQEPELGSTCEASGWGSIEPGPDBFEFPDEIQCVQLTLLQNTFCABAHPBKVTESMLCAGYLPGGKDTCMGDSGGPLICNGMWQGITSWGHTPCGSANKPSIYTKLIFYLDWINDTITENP

N=C(N)NCC1CCC(C(=O)O)CC1 (stereo not drawn) [4-guanidinomethylcyclohexanecarboxylic acid]
anti-plasmin effects (Plasmin [1]): slight anti-plasmin effects

CC(C)(C)c1ccc(OC(=O)[C@H]2CC[C@H](CNC(=N)N)CC2)cc1 [Compound 2, 4'-t-Butylphenyl trans-4-guanidinomethylcyclohexanecarboxylate hydrochloride]
IC50 (Urokinase): 36 µM
inhibition at 25 µg/mL (guinea pigs ilea [2]; final conc. 25 μg/ml): 96%
inhibition at 50 µg/mL (guinea pigs ilea [2]; final conc. 50 μg/ml): 100%
inhibition at 25 µg/mL (guinea pigs ilea [3]): 82%
inhibition at 50 µg/mL (guinea pigs ilea [3]): 96.5%
IC50 (Thrombin): 250 µM
IC50 (Chymotrypsin): 97 µM
LD50 at 168 h (Acute toxicity in rats): 10800 mg/kg
LD50 (Acute toxicity in rats; 10080 min, hydrochloride): 11,000 mg/kg
Time to fall down ([4]; 125 mg/kg oral, 125 mg/kg): 699 sec. and > 900 sec. (4×)
Time to fall down ([4]; 250 mg/kg oral, 250 mg/kg): 632 sec. and > 900 sec. (4×)
Time to fall down ([4]; 500 mg/kg oral, 500 mg/kg): 768 sec. and > 900 sec. (4×)
IC50 (Plasmin [5]): 260 µM
LD50 at 168 h (Acute toxicity in mice): 7300 mg/kg
LD50 (Acute toxicity in mice; 10080 min, hydrochloride): 5400 mg/kg
inhibition at 25 µg/mL [6]: 64.3%
inhibition at 50 µg/mL [6]: 100%
IC50 (Trypsin): 170 µM
IC50 (Plasma kallikrein): 150 µM
inhibition at 10 µg/mL (Mast cells): 46.7%
Survival after 24 hr. (5 mice) ([7]; 100 mg/kg): 2 mice
Survival after 24 hr. (5 mice) ([7]; 250 mg/kg): 2 mice
Survival after 24 hr. (5 mice) ([7]; 500 mg/kg): 4 mice
Time to fall down [8]: > 900 s
IC50 (Pancreas kallikrein): 62 µM
Inhibition of passive cutaneous anaphylaxis [9]: 91.16%
